One compound from ChEMBL document CHEMBL5316263, “Structure-Based Discovery of Selective Histone Deacetylase 8 Degraders with Potent Anticancer Activity” (J Med Chem, 2023) can be followed below.

Each structure is given as a SMILES string.

Assay [1] has as its system A549. Description: Induction of apoptosis in human A549 cells assessed as necrotic cells at 40 uM measured after 72 hrs by annexin V-FITC staining based flow cytometry (reference value: 0.005%). The format is functional.
Assay [2] deals with A549. Nature of the assay: Induction of apoptosis in human A549 cells assessed as necrotic cells at 10 uM measured after 72 hrs by annexin V-FITC staining based flow cytometry (reference value: 0.005%). In kind it is functional.
Assay [3] concerns A549. Nature of the assay: Induction of apoptosis in human A549 cells assessed as viable cells at 20 uM measured after 72 hrs by annexin V-FITC staining based flow cytometry (reference value: 99.1%). To be noted: read-out: Activity. In kind it is functional. On the technique in general: Flow cytometry measures light scatter and fluorescence of single cells or particles in a stream.

The subject of assay [4] is A549. Description: Induction of apoptosis in human A549 cells assessed as late apoptotic cells at 20 uM measured after 72 hrs by annexin V-FITC staining based flow cytometry (reference value: 0.20%). In kind it is functional.
The subject of assay [5] is A549. Description: Antiproliferative activity against human A549 cells assessed as inhibition of cell growth measured after 72 hrs by CCK-8 method. The format is functional, cell-based. As to conditions: A549, 72 h. (In general: Tetrazolium assays rely on reduction of a dye to a coloured formazan, in cell work by metabolically active cells.)
For assay [6], the system named is A549. Nature of the assay: Induction of apoptosis in human A549 cells assessed as viable cells at 40 uM measured after 72 hrs by annexin V-FITC staining based flow cytometry (reference value: 99.1%). The format is functional. As to conditions: read-out: Activity.
In assay [7] the test system is A549. Nature of the assay: Induction of apoptosis in human A549 cells assessed as viable cells at 10 uM measured after 72 hrs by annexin V-FITC staining based flow cytometry (reference value: 99.1%). In kind it is functional. To be noted: read-out: Activity.
Assay [8] deals with A549. Nature of the assay: Induction of apoptosis in human A549 cells assessed as necrotic cells at 30 uM measured after 72 hrs by annexin V-FITC staining based flow cytometry (reference value: 0.005%). The format is functional.
Assay [9] deals with A549. Nature of the assay: Induction of apoptosis in human A549 cells assessed as early apoptotic cells at 30 uM measured after 72 hrs by annexin V-FITC staining based flow cytometry (reference value: 0.13%). The format is functional.
The target in assay [10] is T1, Histone deacetylase 8 (Homo sapiens) (UniProt Q9BY41).
T1 sequence (whole entry): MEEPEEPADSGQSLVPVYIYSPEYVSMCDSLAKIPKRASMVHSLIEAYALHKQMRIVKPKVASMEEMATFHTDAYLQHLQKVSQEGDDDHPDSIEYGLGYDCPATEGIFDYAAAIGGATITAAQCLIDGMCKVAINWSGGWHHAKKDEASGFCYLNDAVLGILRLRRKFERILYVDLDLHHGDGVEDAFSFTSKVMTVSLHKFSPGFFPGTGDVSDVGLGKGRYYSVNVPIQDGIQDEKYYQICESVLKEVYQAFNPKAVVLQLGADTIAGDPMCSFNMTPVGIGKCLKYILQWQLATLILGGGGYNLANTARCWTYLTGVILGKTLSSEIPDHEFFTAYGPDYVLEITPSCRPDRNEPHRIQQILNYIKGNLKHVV
Nature of the assay: Induction of degradation in HDAC8 in human A549 cells at 2 microM measured after 20 hrs by Western blot analysis relative to control. The format is cell-based. In general terms: A western blot detects proteins with antibodies after separation by electrophoresis.

Assay [11] concerns the target T1, Histone deacetylase 8 (Homo sapiens). Nature of the assay: Induction of degradation in HDAC8 in human A549 cells at 200 nM measured after 20 hrs by Western blot analysis relative to control. In kind it is cell-based.
The subject of assay [12] is A549. Description: Induction of apoptosis in human A549 cells assessed as late apoptotic cells at 40 uM measured after 72 hrs by annexin V-FITC staining based flow cytometry (reference value: 0.20%). The format is functional.
Assay [13] deals with A549. Description: Induction of apoptosis in human A549 cells assessed as viable cells at 30 uM measured after 72 hrs by annexin V-FITC staining based flow cytometry (reference value: 99.1%). In kind it is functional. As to conditions: read-out: Activity.
In assay [14] the test system is A549. Description: Induction of apoptosis in human A549 cells assessed as late apoptotic cells at 30 uM measured after 72 hrs by annexin V-FITC staining based flow cytometry (reference value: 0.20%). The format is functional.
The subject of assay [15] is A549. Nature of the assay: Induction of apoptosis in human A549 cells assessed as early apoptotic cells at 10 uM measured after 72 hrs by annexin V-FITC staining based flow cytometry (reference value: 0.13%). In kind it is functional.
For assay [16], the system named is A549. Description: Antiproliferative activity against human A549 cells assessed as inhibition of cell growth measured after 72 hrs under irradiation by CCK-8 method. The format is functional, cell-based. To be noted: A549, light or radiation study.
For assay [17], the system named is A549. Description: Induction of apoptosis in human A549 cells assessed as early apoptotic cells at 20 uM measured after 72 hrs by annexin V-FITC staining based flow cytometry (reference value: 0.13%). The format is functional.
The subject of assay [18] is A549. Nature of the assay: Induction of apoptosis in human A549 cells assessed as late apoptotic cells at 10 uM measured after 72 hrs by annexin V-FITC staining based flow cytometry (reference value: 0.20%). The format is functional.
The subject of assay [19] is A549. Description: Induction of apoptosis in human A549 cells assessed as early apoptotic cells at 40 uM measured after 72 hrs by annexin V-FITC staining based flow cytometry (reference value: 0.13%). The format is functional.
Assay [20] deals with A549. Nature of the assay: Induction of apoptosis in human A549 cells assessed as necrotic cells at 20 uM measured after 72 hrs by annexin V-FITC staining based flow cytometry (reference value: 0.005%). In kind it is functional.

The term IC50 denotes the concentration that gives 50% inhibition. `COc1ccc(Cn2ccc3ccc(C(=O)NO)cc32)cc1`: the Activity in the assay on A549 [1] is 1.21%; in the assay on A549 [2], 0.7%; with A549 [4], 9.71%; in the assay on A549 [8] it was 0.47%; in the assay with A549 [9], 63%; in [10] it was 5%. Also, the Activity in assay [11] stood at 3.6%; in the assay with A549 [12], 24.9%; in the assay with A549 [14] it was 12%; in the assay with A549 [15] it was 42%; with A549 [17], 50.7%; in the assay on A549 [18], 11.7%. Also, the Activity in the assay with A549 [19] is on record as 46.3%; in the assay on A549 [20] it was 0.67%. Moreover, the viability at 20 µM in the assay on A549 [3] came out at 29%. The IC50 in the assay on A549 [5] is 15.8 µM; in the assay with A549 [16] it was 13.1 µM. For the same compound, the viability at 40 µM with A549 [6] was found to be 28.6%. For the same compound, the viability at 10 µM in the assay on A549 [7] amounted to 45.6%. Also, the viability at 30 µM in the assay with A549 [13] is 24.6%.
